According to patent publication US20090104119A1, “Dendrimer Based Compositions And Methods Of Using The Same” (priority 2004, published 2009):

Assays:
[1] = test system: KB cells; test: Binding and internalization of dendrimers by confocal microscopy; format: cell-based, human; conditions: 250 nM, 24 hours, compared to control conjugates
Description: Flow Cytometry and Confocal Microscopy. The standard fluorescence of the dendrimer solutions was quantified using a Beckman spectrofluorimeter. For flow cytometric analysis of the uptake of the targeted polymer, cells were trypsinized and suspended in PBS containing 0.1% bovine serum albumin (PBSB) and analyzed using a Becton Dickinson FACScan analyzer. The FL1-fluorescence of 10,000 cells was measured and the mean fluorescence of gated viable cells was quantified. Confocal microscopic analysis was performed in cells plated on a glass cover-slip, using a Carl Ziess confocal microscope. Fluorescence and differential interference contrast (DIC) images were collected simultaneously using an argon laser, using the appropriate filters for FITC.
The effect of free FA on the uptake of the dendrimers was tested in KB cells that express both high and low FAR. The binding of the conjugates to the low FAR-expressing KB cells was 30% of that of the high FAR-expressing cells for both the G5-FITC-FA and G5-FITC-FA-MTX (See, for e.g., FIG. 19, left panel). […] The binding and internalization of the dendrimers to KB cells was assessed by confocal microscopy. KB cells were incubated with 250 nM of the indicated dendrimers for 24 hours and confocal images were taken. Conjugates containing the targeting molecule FA internalized into KB cells within 24 h (See, e.g., FIG. 20).

[2] = test system: KB cells; test: Inhibition of cell growth by total cell protein
Description: Cell culture and treatment. KB cells were maintained in folate-free medium containing 10% serum (See, e.g., Quintana et al, Pharm. Res. 19, 1310 (2002)) to provide extracellular FA similar to that found in human serum. Cells were plated in 12-well plates for uptake studies, in 24-well plates for cell growth analysis, and in 96-well plates for XTT assay. Cells were rinsed with FA-free medium containing dialyzed serum and incubated at 37° C. with dendrimer-drug conjugates for the indicated time periods and concentrations. KB cells were also maintained in RPMI medium containing 2 μM FA to obtain cells which express low FAR.
Evaluation of dendrimer cytotoxicity. Cell growth was determined by assay of the total protein in lysates of treated cells using a bicinchoninic acid reagent (PIERCE, and by XTT assay, using a kit from Roche.
Time course and dose dependent inhibition of cell growth. Previous studies have shown that MTX-induced cytotoxicity is detectable in vitro only if the medium is completely deprived of FA (See, e.g., Sobrero & Bertino, Int. J. Cell Cloning 4, 51 (1986)). The effect of the trifunctional dendrimers on cell growth was tested in cells incubated in a FA-deficient medium. Cells were treated with 300 nM conjugates (equivalent of 1500 nM MTX) or 1500 nM free MTX for 1-4 days, and cell proliferation was determined by estimation of cellular protein content. Cells were treated for 2 days with different concentrations of the conjugates or free MTX (the conjugate concentration is given as MTX equivalents, with 5 MTX per dendrimer molecule). KB cells which express high and low FAR were incubated with 30 nM of the dendrimers for 1 hr at 37° C., rinsed, and the fluorescence of cells was determined by flow cytometric analysis (See. e.g., FIG. 21, left panel).
KB cells were treated with 150 or 500 nM MTX in the presence or absence of equimolar concentrations of free FA for 24 h. […] The cells were rinsed to remove the drugs and incubated with fresh medium for an additional 6 d, and total cell protein was determined.

[3] = Stability of dendrimer in cell culture medium (MTX release; ultrafiltration, XTT readout); format: physicochemical
Description: The stability of the dendrimer was tested in cell culture medium to check if MTX was released from the dendrimer prior to its entry into the cells. The G5-FITC-FA-MTX was incubated with cell culture medium for 1, 2, 4 and 24 h, and the incubation medium was filtered using a 10,000-MW cutoff ultrafiltration device. The effect of the retentate and the filtrate on the growth of the KB cells was tested. G5-FITC-FA-MTX was incubated with medium at 2 μM concentration for 24 h. The incubation medium was filtered through a Centricon 10K-MW cutoff filter. The retentate (adjusted to pre-filtration volume) and the filtrate were incubated with KB cells (at 200 nM conjugate, as determined from the concentration of the pre-filtration sample) for 2 days and the XTT assay was performed. Similar results were obtained for the retentate and filtrate obtained from the medium that had been pre-incubated with the dendrimers for 1, 2, and 4 hours. […] There was a slow release of the MTX after 24 h, reaching a maximum of 40-50% release in 1 week.

[4] = 2 μM, up to 24 h in medium, 10K-MW cutoff filter, KB cells 2 days, XTT

In the case of “G5-(Ac)82-(FITC)5-(FA)5-MTX5 [G5-FITC-FA-MTX]”, the “cell morphology indicating cytotoxicity” value [1] is reported as “less adherent and rounded up”, the “cytotoxicity compared with equimolar combinations of free FA and MTX” value ([2]; 30 and 100 nM conjugate (150 and 500 nM MTX), 24 h then 6 d) is reported as “similar” and the “inhibition of cell growth (FIGS. 21 and 22)” value ([2]; FA-deficient medium, 1-4 days, different concentrations) is reported as “inhibited cell growth in a time- and dose-dependent fashion”. The “cytotoxicity of filtrate after incubation in medium” value [3, 4] was “failed to show any cytotoxicity”, the “cytotoxicity of retentate after incubation in medium” value [3, 4] was “cytotoxic” and the “release of MTX, maximum” value ([3]; slow release after 24 h, in 1 week) was 40-50%.
